Assay results taken from patent publication US10363251B2, “(+)-morphinans as antagonists of toll-like receptor 9 and therapeutic uses thereof” (Mallinckrodt LLC, priority 2009, dated 2019).

How the values were obtained:
Format in all cases: cell-based
[1] = biological target: T1, TLR5 (Homo sapiens, UniProt O60602); assay: TLR5 antagonist screening, NF-κB-inducible SEAP reporter in HEK293 cells; settings: for Average % Inhibition at TLR5: 10 μM, stimulated with Flagellin at 100 ng/ml
T1 construct: expressed in transfected cells; host or cells: HEK293
Procedure: (§1) Stimulation of TLRs 2, 3, 4, 5, 7, 8, and 9 was determined by assessing activation of the transcription factor NF-κB in HEK293 cells that were engineered to express the corresponding receptors. Assessment of TLR stimulation was based on the use of an NF-κB-inducible secreted alkaline phosphatase (SEAP) reporter system in which the SEAP reporter was under the control of a promoter inducible by NF-κB. Thus, the degree of activation of TLRs can be indirectly quantified spectrophotometrically by measuring the amount of the SEAP reporter that is produced.
(§2) The appropriate TLR-expressing cells were plated in Growth Medium in a 96-well plate (25,000-50,000 cells/well). The cells were stimulated with the appropriate positive control ligand or no ligand was added (negative control). The positive control ligands were: HKLM was used to stimulate TLR2; poly(I:C) was used to stimulate TLR3; LPS was used to stimulate TLR4; Flagellin was used to stimulate TLR5; CL097 was used to stimulate TLR7; CL075 was used to stimulate TLR8; CpG oligodeoxynucleotide (ODN) 2006 was used to stimulate TLR9. To test whether (+)-morphinans could block that activation of the TLR, the cells were pretreated with an antagonist for 30 minutes prior to addition of the positive control ligand. For this, 20 μL of the stock test compound solution (100 μM in H2O) was added to give a total volume of 200 μL. […] After a 16-20 hr incubation period at 37° C. in a CO2 incubator, 20 μL of the cell culture supernatant was added to 180 μL of QUANTI-Blue™ Media (InvivoGen, San Diego, Calif.), and the resulting solutions were incubated at 37° C. for an additional 1-3 hours according to the manufacturer's instructions. The OD's of the samples were then read at 650 nm on a Beckman Coulter AD 340C Absorbance Detector.

[2] = biological target: T2, TLR9 (Homo sapiens, UniProt Q9NR96); assay: TLR9 antagonist screening, NF-κB-inducible SEAP reporter in HEK293 cells; settings: for Average % Inhibition at TLR9: 10 μM, stimulated with CpG ODN 2006 at 100 ng/ml
T2 construct: expressed in transfected cells; host or cells: HEK293
T2 sequence (Q9NR96 26-1032): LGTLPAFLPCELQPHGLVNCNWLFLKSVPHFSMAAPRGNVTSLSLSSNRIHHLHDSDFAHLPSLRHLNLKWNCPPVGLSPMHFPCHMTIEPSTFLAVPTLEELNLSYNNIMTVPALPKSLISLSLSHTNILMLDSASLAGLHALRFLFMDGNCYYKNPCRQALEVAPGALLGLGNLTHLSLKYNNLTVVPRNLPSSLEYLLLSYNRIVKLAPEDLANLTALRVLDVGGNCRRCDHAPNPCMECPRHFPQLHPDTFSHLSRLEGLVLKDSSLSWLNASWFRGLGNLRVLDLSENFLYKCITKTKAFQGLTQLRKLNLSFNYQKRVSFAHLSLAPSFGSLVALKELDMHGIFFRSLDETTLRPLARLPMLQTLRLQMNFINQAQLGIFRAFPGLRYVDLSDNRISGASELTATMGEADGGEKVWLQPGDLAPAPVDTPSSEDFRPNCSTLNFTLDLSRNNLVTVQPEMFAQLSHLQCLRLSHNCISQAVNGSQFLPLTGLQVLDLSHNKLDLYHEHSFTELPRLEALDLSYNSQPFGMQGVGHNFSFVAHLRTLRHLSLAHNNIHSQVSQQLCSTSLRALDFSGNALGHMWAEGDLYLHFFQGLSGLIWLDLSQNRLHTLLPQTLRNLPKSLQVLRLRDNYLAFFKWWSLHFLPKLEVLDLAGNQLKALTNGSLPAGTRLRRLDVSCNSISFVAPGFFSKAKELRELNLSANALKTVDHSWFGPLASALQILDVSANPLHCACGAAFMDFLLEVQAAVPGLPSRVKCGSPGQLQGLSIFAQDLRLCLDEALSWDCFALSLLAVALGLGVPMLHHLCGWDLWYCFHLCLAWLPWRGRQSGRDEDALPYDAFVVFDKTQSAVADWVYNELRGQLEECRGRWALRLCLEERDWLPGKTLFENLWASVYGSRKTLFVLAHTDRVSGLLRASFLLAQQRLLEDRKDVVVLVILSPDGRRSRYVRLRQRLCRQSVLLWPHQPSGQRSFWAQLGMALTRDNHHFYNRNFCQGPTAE
Procedure: as §1, §2

[3] = biological target: T3, TLR3 (Homo sapiens, UniProt O15455); assay: TLR3 antagonist screening, NF-κB-inducible SEAP reporter in HEK293 cells; settings: for Average % Inhibition at TLR3: 10 μM, stimulated with poly(I:C) at 1 μg/ml
T3 construct: expressed in transfected cells; host or cells: HEK293
Procedure: as §1, §2

T3 sequence (O15455 24-904, species assumed): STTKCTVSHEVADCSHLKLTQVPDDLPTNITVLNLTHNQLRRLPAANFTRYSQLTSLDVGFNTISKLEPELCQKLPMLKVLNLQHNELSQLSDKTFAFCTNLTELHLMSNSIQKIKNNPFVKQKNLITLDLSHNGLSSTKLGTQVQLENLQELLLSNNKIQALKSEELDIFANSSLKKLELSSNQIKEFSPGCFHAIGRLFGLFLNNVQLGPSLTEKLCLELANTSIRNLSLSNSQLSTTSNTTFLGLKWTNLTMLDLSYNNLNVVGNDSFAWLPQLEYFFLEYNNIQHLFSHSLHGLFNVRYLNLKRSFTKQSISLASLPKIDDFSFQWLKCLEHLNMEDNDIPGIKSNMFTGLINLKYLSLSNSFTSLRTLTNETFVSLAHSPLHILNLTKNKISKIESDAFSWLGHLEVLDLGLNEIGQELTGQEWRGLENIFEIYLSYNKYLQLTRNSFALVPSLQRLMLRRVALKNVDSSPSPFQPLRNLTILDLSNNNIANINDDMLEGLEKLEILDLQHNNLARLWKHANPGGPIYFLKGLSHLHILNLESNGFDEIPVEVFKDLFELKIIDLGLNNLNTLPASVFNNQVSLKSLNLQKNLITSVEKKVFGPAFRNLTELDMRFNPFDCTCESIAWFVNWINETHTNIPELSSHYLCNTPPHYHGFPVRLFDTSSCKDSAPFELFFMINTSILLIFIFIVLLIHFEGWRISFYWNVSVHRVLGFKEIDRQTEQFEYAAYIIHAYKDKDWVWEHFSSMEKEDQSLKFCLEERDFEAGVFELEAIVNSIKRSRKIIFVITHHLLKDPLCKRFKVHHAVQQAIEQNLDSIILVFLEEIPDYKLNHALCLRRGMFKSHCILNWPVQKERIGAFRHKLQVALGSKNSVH
T1 sequence (O60602 21-858, species assumed): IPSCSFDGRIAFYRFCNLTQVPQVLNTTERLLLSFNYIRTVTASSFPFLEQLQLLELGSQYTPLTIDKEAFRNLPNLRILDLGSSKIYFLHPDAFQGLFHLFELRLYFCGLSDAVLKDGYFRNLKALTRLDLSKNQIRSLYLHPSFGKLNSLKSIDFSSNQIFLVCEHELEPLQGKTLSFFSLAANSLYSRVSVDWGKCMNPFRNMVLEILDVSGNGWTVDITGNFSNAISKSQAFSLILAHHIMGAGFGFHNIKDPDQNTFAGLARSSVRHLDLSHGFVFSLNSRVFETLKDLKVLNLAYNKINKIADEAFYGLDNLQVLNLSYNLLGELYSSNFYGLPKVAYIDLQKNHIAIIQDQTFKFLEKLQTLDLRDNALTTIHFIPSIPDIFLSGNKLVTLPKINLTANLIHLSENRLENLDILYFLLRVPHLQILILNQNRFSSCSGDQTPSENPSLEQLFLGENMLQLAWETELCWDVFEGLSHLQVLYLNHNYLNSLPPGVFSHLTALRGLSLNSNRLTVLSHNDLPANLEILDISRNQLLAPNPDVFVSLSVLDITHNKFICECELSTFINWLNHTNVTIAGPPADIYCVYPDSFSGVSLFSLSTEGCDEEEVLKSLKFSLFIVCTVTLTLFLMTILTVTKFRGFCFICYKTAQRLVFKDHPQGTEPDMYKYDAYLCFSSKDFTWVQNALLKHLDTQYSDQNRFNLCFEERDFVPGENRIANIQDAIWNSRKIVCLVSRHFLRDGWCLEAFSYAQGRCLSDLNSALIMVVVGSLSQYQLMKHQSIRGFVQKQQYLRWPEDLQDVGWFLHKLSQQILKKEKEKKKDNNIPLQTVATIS

Structure (SMILES)	Average % Inhibition at TLR5 [1] [%]	Average % Inhibition at TLR9 [2] [%]	Average % Inhibition at TLR3 [3] [%]	inhibition at 10 µM ([1]; HEK293, stimulated with Flagellin at 100 ng/ml) [%]	inhibition at 10 µM ([2]; HEK293, stimulated with CpG ODN 2006 at 100 ng/ml) [%]	inhibition at 10 µM ([3]; HEK293, stimulated with poly(I:C) at 1 μg/ml) [%]
C=CCN1CC[C@]23c4c5ccc(O)c4O[C@H]2C(=O)CC[C@]3(O)[C@H]1C5 [(+)-Naloxone, (+)-naloxone]	17	45	27			
COc1ccc2c(c1O)[C@@]13CCN(C)[C@@H](C2)[C@H]1CC(OC)C(=O)C3 (stereo partly drawn) [Dihydrosinomenine, dihydrosinomenine]	16	42	40			
COC1=C[C@@H]2[C@@H]3Cc4ccc(OC)c(O)c4[C@]2(CCN3C)CC1=O [Sinomenine, sinomenine]				19	55	28
